Reference: ChEMBL document CHEMBL1201862, “PubChem BioAssay data set” (2004)
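Test compounds were applied to cells in 96-well plates for 48 hours at 5 doses. The concentration for 50% growth inhibition is given as GI50.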 Activity calls are given as the source filed them. No stated cut-off is given here; in the data, active = GI50 up to about 1.1 µM and inactive = higher.

Legend:
Assay in all cases: NCI anticancer screen, dose series, 48 h
NCI-H23 = system: NCI-H23
Malme-3M = system: Malme-3M
K562 = system: K562
HOP-62 = system: HOP-62
MCF7 = system: MCF7
MDA-N = system: MDA-N
MDA-MB-435 = system: MDA-MB-435
LOX IMVI = system: LOX IMVI
UACC-62 = system: UACC-62
SNB-75 = system: SNB-75
KM12 = system: KM12
UACC-257 = system: UACC-257
SK-MEL-5 = system: SK-MEL-5
CCRF-CEM = system: CCRF-CEM
SK-OV-3 = system: SK-OV-3
HL-60 = system: HL-60
SF-268 = system: SF-268
COLO 205 = system: COLO 205
RPMI-8226 = system: RPMI-8226
HOP-92 = system: HOP-92

SMILES	GI50 (NCI-H23)	GI50 (Malme-3M)	GI50 (K562)	GI50 (HOP-62)	GI50 (MCF7)	GI50 (MDA-N)	GI50 (MDA-MB-435)	GI50 (LOX IMVI)	GI50 (UACC-62)	GI50 (SNB-75)	GI50 (KM12)	GI50 (UACC-257)	GI50 (SK-MEL-5)	GI50 (CCRF-CEM)	GI50 (SK-OV-3)	GI50 (HL-60)	GI50 (SF-268)	GI50 (COLO 205)	GI50 (RPMI-8226)	GI50 (HOP-92)
COC(=O)C(Cc1ccc(OC)cc1O)NC(=O)OC(C)(C)C (configuration not stated)	86.3 µM (inactive)	78.5 µM (inactive)	> 100 µM (inactive)	> 100 µM (inactive)	> 100 µM (inactive)	> 100 µM (inactive)	> 100 µM (inactive)	> 100 µM (inactive)	> 100 µM (inactive)	> 100 µM (inactive)	> 100 µM (inactive)	22.1 µM (inactive)	61.7 µM (inactive)	> 100 µM (inactive)	> 100 µM (inactive)	> 100 µM (inactive)	> 100 µM (inactive)	> 100 µM (inactive)	–	–
COC(=O)c1c(O)ccc2c1c1c(n2Cc2cc(OC)cc(OC)c2)C(=O)c2ccccc2C1	58.1 µM (inactive)	68.5 µM (inactive)	66.8 µM (inactive)	> 100 µM (inactive)	23.7 µM (inactive)	10.8 µM (inactive)	10.9 µM (inactive)	33.1 µM (inactive)	49.2 µM (inactive)	4.7 µM (inactive)	43.3 µM (inactive)	67 µM (inactive)	34.3 µM (inactive)	18.2 µM (inactive)	29 µM (inactive)	> 100 µM (inactive)	31.1 µM (inactive)	13.2 µM (inactive)	7.82 µM (inactive)	–
O=C1NN=C(O)C2C3c4ccccc4C(c4ccccc43)C12 (configuration not stated)	> 100 µM (inactive)	> 100 µM (inactive)	> 100 µM (inactive)	> 100 µM (inactive)	> 100 µM (inactive)	> 100 µM (inactive)	–	> 100 µM (inactive)	> 100 µM (inactive)	> 100 µM (inactive)	> 100 µM (inactive)	> 100 µM (inactive)	> 100 µM (inactive)	> 100 µM (inactive)	> 100 µM (inactive)	> 100 µM (inactive)	> 100 µM (inactive)	> 100 µM (inactive)	> 100 µM (inactive)	–
O=S1(=O)OCCCOS(=O)(=O)C1Br	> 100 µM (inactive)	> 100 µM (inactive)	–	> 100 µM (inactive)	> 100 µM (inactive)	> 100 µM (inactive)	> 100 µM (inactive)	> 100 µM (inactive)	> 100 µM (inactive)	> 100 µM (inactive)	> 100 µM (inactive)	> 100 µM (inactive)	> 100 µM (inactive)	–	> 100 µM (inactive)	–	> 100 µM (inactive)	> 100 µM (inactive)	> 100 µM (inactive)	–
Oc1ccc(N=C2CCC(=C(c3ccccc3)c3ccc(Nc4ccc(O)cc4)cc3)CC2)cc1	62.7 µM (inactive)	–	> 100 µM (inactive)	–	> 100 µM (inactive)	–	34.5 µM (inactive)	73.3 µM (inactive)	55.8 µM (inactive)	–	32.4 µM (inactive)	> 100 µM (inactive)	> 100 µM (inactive)	88.9 µM (inactive)	62.1 µM (inactive)	–	50.9 µM (inactive)	33.3 µM (inactive)	46.1 µM (inactive)	> 100 µM (inactive)
COc1ccc(C2C(C=O)C(N3CCN(C)CC3)=Nc3nc4ccccc4n32)cc1 (configuration not stated)	20.5 µM (inactive)	10.8 µM (inactive)	1.08 µM (active)	12.2 µM (inactive)	13.2 µM (inactive)	–	15.5 µM (inactive)	17.3 µM (inactive)	14.1 µM (inactive)	11.8 µM (inactive)	16.3 µM (inactive)	16.6 µM (inactive)	15.9 µM (inactive)	2.31 µM (inactive)	–	2.09 µM (inactive)	16.6 µM (inactive)	16.8 µM (inactive)	2.35 µM (inactive)	4.83 µM (inactive)
Cc1n[nH]c(=O)n1/N=C/c1cccc(Cl)c1	> 100 µM (inactive)	> 100 µM (inactive)	> 100 µM (inactive)	49.3 µM (inactive)	> 100 µM (inactive)	> 100 µM (inactive)	94.4 µM (inactive)	–	> 100 µM (inactive)	61.5 µM (inactive)	> 100 µM (inactive)	> 100 µM (inactive)	–	> 100 µM (inactive)	> 100 µM (inactive)	–	63.7 µM (inactive)	> 100 µM (inactive)	> 100 µM (inactive)	–
CCOC(=O)c1nc2ccc(C(F)(F)F)cc2nc1Oc1ccc(F)cc1	> 100 µM (inactive)	–	42.3 µM (inactive)	> 100 µM (inactive)	> 100 µM (inactive)	–	> 100 µM (inactive)	> 100 µM (inactive)	> 100 µM (inactive)	> 100 µM (inactive)	> 100 µM (inactive)	> 100 µM (inactive)	> 100 µM (inactive)	> 100 µM (inactive)	> 100 µM (inactive)	> 100 µM (inactive)	> 100 µM (inactive)	> 100 µM (inactive)	> 100 µM (inactive)	> 100 µM (inactive)
O=C(/C=C(\Nc1ccccc1O)c1ccccc1)C(=O)NC12CC3CC(CC(C3)C1)C2	> 10 µM (inactive)	> 10 µM (inactive)	> 10 µM (inactive)	> 10 µM (inactive)	> 10 µM (inactive)	> 10 µM (inactive)	> 10 µM (inactive)	9.14 µM (inactive)	–	> 10 µM (inactive)	6.95 µM (inactive)	> 10 µM (inactive)	7.03 µM (inactive)	4.33 µM (inactive)	> 10 µM (inactive)	3.52 µM (inactive)	> 10 µM (inactive)	> 10 µM (inactive)	4.99 µM (inactive)	–
C=C(O)c1ccccc1C#Cc1ccccc1C(=O)OC	> 10 µM (inactive)	> 10 µM (inactive)	> 10 µM (inactive)	> 10 µM (inactive)	> 10 µM (inactive)	> 10 µM (inactive)	> 10 µM (inactive)	> 10 µM (inactive)	> 10 µM (inactive)	3.66 µM (inactive)	> 10 µM (inactive)	> 10 µM (inactive)	> 10 µM (inactive)	> 10 µM (inactive)	> 10 µM (inactive)	> 10 µM (inactive)	> 10 µM (inactive)	> 10 µM (inactive)	> 10 µM (inactive)	–
COc1cc(NP(=O)(Oc2ccccc2)Oc2ccccc2)ccc1Nc1c2ccccc2nc2c1[nH]c1ccccc12	0.585 µM (active)	4.46 µM (inactive)	1.62 µM (inactive)	0.359 µM (active)	0.092 µM (active)	2.77 µM (inactive)	3.11 µM (inactive)	0.598 µM (active)	2.4 µM (inactive)	0.766 µM (active)	2.62 µM (inactive)	7.71 µM (inactive)	1.22 µM (inactive)	0.183 µM (active)	1.88 µM (inactive)	–	6.52 µM (inactive)	2.81 µM (inactive)	–	0.933 µM (active)
COc1cc(C2S/C(=C/c3ccccc3)C(=O)N2c2cccc([N+](=O)[O-])c2)cc(OC)c1OC (configuration not stated)	> 100 µM (inactive)	> 100 µM (inactive)	51.5 µM (inactive)	> 100 µM (inactive)	47.8 µM (inactive)	22.9 µM (inactive)	17.5 µM (inactive)	40.8 µM (inactive)	65.9 µM (inactive)	–	28.8 µM (inactive)	> 100 µM (inactive)	67.3 µM (inactive)	–	> 100 µM (inactive)	–	76.2 µM (inactive)	> 100 µM (inactive)	–	62.1 µM (inactive)
CCOC(=O)C(=[N+]=[N-])C(=O)CSC#N	84.7 µM (inactive)	55 µM (inactive)	–	> 100 µM (inactive)	38.4 µM (inactive)	36 µM (inactive)	22.6 µM (inactive)	21.7 µM (inactive)	69.5 µM (inactive)	–	> 100 µM (inactive)	71.4 µM (inactive)	35.5 µM (inactive)	35.1 µM (inactive)	> 100 µM (inactive)	39.3 µM (inactive)	> 100 µM (inactive)	> 100 µM (inactive)	–	–
CN(C)CCNc1ccc(CO)c2sc3ccc(O)cc3c(=O)c12	0.869 µM (active)	2.66 µM (inactive)	2.06 µM (inactive)	0.204 µM (active)	–	1.45 µM (inactive)	1.56 µM (inactive)	1.11 µM (active)	1.34 µM (inactive)	2.42 µM (inactive)	2.34 µM (inactive)	5.24 µM (inactive)	1.29 µM (inactive)	0.171 µM (active)	1.76 µM (inactive)	0.258 µM (active)	1.55 µM (inactive)	4.3 µM (inactive)	1.69 µM (inactive)	0.832 µM (active)
COc1ccc2c(c1)C=C([N+](=O)[O-])C(C1OC(C)(C)OC1C1COC(C)(C)O1)O2 (configuration not stated)	11.6 µM (inactive)	2.31 µM (inactive)	1.44 µM (inactive)	20 µM (inactive)	2.54 µM (inactive)	–	3.06 µM (inactive)	1.49 µM (inactive)	1.82 µM (inactive)	14.5 µM (inactive)	2 µM (inactive)	2.77 µM (inactive)	2.82 µM (inactive)	0.386 µM (active)	11 µM (inactive)	1.86 µM (inactive)	3.5 µM (inactive)	10.8 µM (inactive)	1.67 µM (inactive)	16.1 µM (inactive)
O=C1c2ccccc2C(=O)c2sc(Nc3ccccc3Cl)nc21	4.98 µM (inactive)	14.2 µM (inactive)	2.8 µM (inactive)	16.7 µM (inactive)	14.3 µM (inactive)	2.41 µM (inactive)	–	2.6 µM (inactive)	7.4 µM (inactive)	13.6 µM (inactive)	15 µM (inactive)	8.34 µM (inactive)	5.87 µM (inactive)	2.75 µM (inactive)	19.5 µM (inactive)	0.713 µM (active)	9.29 µM (inactive)	14.6 µM (inactive)	3.68 µM (inactive)	13.2 µM (inactive)
